Source: the NIST ThermoML archive (doi:10.1021/acs.jced.7b00107)
Numbers after ± are expanded uncertainties.

Settings: for molar entropy: 101.33 kPa; for Triple point temperature: Adiabatic calorimetry

Cl.NC12CC3CC(CC(C3)C1)C2 [1-aminoadamantane hydrochloride]
Settings | molar entropy [J/K/mol]
5 K, Crystal 3, Small (less than 1 g) adiabatic calorimetry | 0.1924 ± 0.028
10 K, Crystal 3, Small (less than 1 g) adiabatic calorimetry | 1.564 ± 0.063
15 K, Crystal 3, Small (less than 1 g) adiabatic calorimetry | 4.477 ± 0.13
20 K, Crystal 3, Small (less than 1 g) adiabatic calorimetry | 8.48 ± 0.18
25 K, Crystal 3, Small (less than 1 g) adiabatic calorimetry | 13.09 ± 0.23
30 K, Crystal 3, Small (less than 1 g) adiabatic calorimetry | 17.99 ± 0.28
35 K, Crystal 3, Small (less than 1 g) adiabatic calorimetry | 22.99 ± 0.32
40 K, Crystal 3, Small (less than 1 g) adiabatic calorimetry | 27.96 ± 0.36
45 K, Crystal 3, Small (less than 1 g) adiabatic calorimetry | 32.87 ± 0.39
50 K, Crystal 3, Small (less than 1 g) adiabatic calorimetry | 37.68 ± 0.43
60 K, Crystal 3, Small (less than 1 g) adiabatic calorimetry | 46.99 ± 0.51
70 K, Crystal 3, Small (less than 1 g) adiabatic calorimetry | 55.88 ± 0.58
80 K, Crystal 3, Small (less than 1 g) adiabatic calorimetry | 64.42 ± 0.65
90 K, Crystal 3, Small (less than 1 g) adiabatic calorimetry | 72.68 ± 0.73
100 K, Crystal 3, Small (less than 1 g) adiabatic calorimetry | 80.74 ± 0.8
110 K, Crystal 3, Small (less than 1 g) adiabatic calorimetry | 88.67 ± 0.85
120 K, Crystal 2, Small (less than 1 g) adiabatic calorimetry | 96.9 ± 0.93
120 K, Crystal 3, Small (less than 1 g) adiabatic calorimetry | 96.53 ± 0.91
123.1 K, Crystal 1, Small (less than 1 g) adiabatic calorimetry | 100.6 ± 1
123.1 K, Crystal 2, Small (less than 1 g) adiabatic calorimetry | 99.33 ± 0.95
130 K, Crystal 1, Small (less than 1 g) adiabatic calorimetry | 106 ± 1
140 K, Crystal 1, Small (less than 1 g) adiabatic calorimetry | 113.7 ± 1.1
150 K, Crystal 1, Small (less than 1 g) adiabatic calorimetry | 121.3 ± 1.2
160 K, Crystal 1, Small (less than 1 g) adiabatic calorimetry | 128.7 ± 1.2
170 K, Crystal 1, Small (less than 1 g) adiabatic calorimetry | 136 ± 1.2
180 K, Crystal 1, Small (less than 1 g) adiabatic calorimetry | 143.3 ± 1.3
190 K, Crystal 1, Small (less than 1 g) adiabatic calorimetry | 150.5 ± 1.4
200 K, Crystal 1, Small (less than 1 g) adiabatic calorimetry | 157.7 ± 1.4
210 K, Crystal 1, Small (less than 1 g) adiabatic calorimetry | 164.8 ± 1.5
220 K, Crystal 1, Small (less than 1 g) adiabatic calorimetry | 172 ± 1.5
230 K, Crystal 1, Small (less than 1 g) adiabatic calorimetry | 179.1 ± 1.5
240 K, Crystal 1, Small (less than 1 g) adiabatic calorimetry | 186.3 ± 1.6
250 K, Crystal 1, Small (less than 1 g) adiabatic calorimetry | 193.4 ± 1.7
260 K, Crystal 1, Small (less than 1 g) adiabatic calorimetry | 200.6 ± 1.7
270 K, Crystal 1, Small (less than 1 g) adiabatic calorimetry | 207.8 ± 1.7
280 K, Crystal 1, Small (less than 1 g) adiabatic calorimetry | 215 ± 1.9
290 K, Crystal 1, Small (less than 1 g) adiabatic calorimetry | 222.2 ± 1.9
298.15 K, Crystal 1, Small (less than 1 g) adiabatic calorimetry | 228.1 ± 1.9
300 K, Crystal 1, Small (less than 1 g) adiabatic calorimetry | 229.5 ± 1.9
310 K, Crystal 1, Small (less than 1 g) adiabatic calorimetry | 236.7 ± 1.9
320 K, Crystal 1, Small (less than 1 g) adiabatic calorimetry | 244 ± 2.1
330 K, Crystal 1, Small (less than 1 g) adiabatic calorimetry | 251.3 ± 2.1
340 K, Crystal 1, Small (less than 1 g) adiabatic calorimetry | 258.6 ± 2.1
350 K, Crystal 1, Small (less than 1 g) adiabatic calorimetry | 265.9 ± 2.2
360 K, Crystal 1, Small (less than 1 g) adiabatic calorimetry | 273.3 ± 2.3
370 K, Crystal 1, Small (less than 1 g) adiabatic calorimetry | 280.6 ± 2.3
380 K, Crystal 1, Small sample (50 mg) DSC | 288 ± 6.7
390 K, Crystal 1, Small sample (50 mg) DSC | 295.4 ± 6.9
400 K, Crystal 1, Small sample (50 mg) DSC | 302.8 ± 7.2
410 K, Crystal 1, Small sample (50 mg) DSC | 310.2 ± 7.5
420 K, Crystal 1, Small sample (50 mg) DSC | 317.6 ± 7.9
430 K, Crystal 1, Small sample (50 mg) DSC | 325 ± 8.2
440 K, Crystal 1, Small sample (50 mg) DSC | 332.5 ± 8.6
450 K, Crystal 1, Small sample (50 mg) DSC | 339.9 ± 9
460 K, Crystal 1, Small sample (50 mg) DSC | 347.3 ± 9.4
470 K, Crystal 1, Small sample (50 mg) DSC | 354.8 ± 9.8

Settings | Triple point temperature [K]
Crystal 2 | 123.1 ± 0.4
Crystal 3 | 120 ± 0.4
